Calls of active or inactive are those of the source. The rule behind the calls is not given here.
Key:
[1] = target: T1, Bifunctional arginine demethylase and lysyl-hydroxylase JMJD6 (Homo sapiens, UniProt Q6NYC1); assay: Inhibition of JMJD6 (unknown origin) by Succinate-Glo assay
[2] = target: T2, Lysine-specific demethylase 3B (Homo sapiens, UniProt Q7LBC6); assay: Binding affinity to KDM3B (unknown origin) by differential scanning fluorimetry
[3] = target: T3, Bifunctional peptidase and (3S)-lysyl hydroxylase JMJD7 (Homo sapiens, UniProt P0C870); assay: Inhibition of JMJD7 (unknown origin) by Succinate-Glo assay
T3 sequence (P0C870 whole entry): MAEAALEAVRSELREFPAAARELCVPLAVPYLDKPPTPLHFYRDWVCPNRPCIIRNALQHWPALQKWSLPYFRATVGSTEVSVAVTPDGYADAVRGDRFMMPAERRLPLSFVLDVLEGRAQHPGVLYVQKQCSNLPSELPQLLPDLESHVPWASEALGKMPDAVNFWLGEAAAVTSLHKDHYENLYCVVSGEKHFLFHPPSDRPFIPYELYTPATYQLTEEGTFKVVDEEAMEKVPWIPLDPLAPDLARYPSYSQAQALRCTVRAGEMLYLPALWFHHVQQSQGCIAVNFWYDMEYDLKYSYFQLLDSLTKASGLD

[4] = target: T3, Bifunctional peptidase and (3S)-lysyl hydroxylase JMJD7; assay: Binding affinity to JMJD7 (unknown origin) by differential scanning fluorimetry
[5] = target: T1, Bifunctional arginine demethylase and lysyl-hydroxylase JMJD6; assay: Binding affinity to JMJD6 (unknown origin) assessed as thermal stability of the protein by measuring change in melting temperature by differential scanning fluorimetry
[6] = target: T4, Lysine-specific demethylase 5A (Homo sapiens, UniProt P29375); assay: Inhibition of KDM5A (unknown origin) by AlphalLISA assay
T4 sequence (P29375 whole entry): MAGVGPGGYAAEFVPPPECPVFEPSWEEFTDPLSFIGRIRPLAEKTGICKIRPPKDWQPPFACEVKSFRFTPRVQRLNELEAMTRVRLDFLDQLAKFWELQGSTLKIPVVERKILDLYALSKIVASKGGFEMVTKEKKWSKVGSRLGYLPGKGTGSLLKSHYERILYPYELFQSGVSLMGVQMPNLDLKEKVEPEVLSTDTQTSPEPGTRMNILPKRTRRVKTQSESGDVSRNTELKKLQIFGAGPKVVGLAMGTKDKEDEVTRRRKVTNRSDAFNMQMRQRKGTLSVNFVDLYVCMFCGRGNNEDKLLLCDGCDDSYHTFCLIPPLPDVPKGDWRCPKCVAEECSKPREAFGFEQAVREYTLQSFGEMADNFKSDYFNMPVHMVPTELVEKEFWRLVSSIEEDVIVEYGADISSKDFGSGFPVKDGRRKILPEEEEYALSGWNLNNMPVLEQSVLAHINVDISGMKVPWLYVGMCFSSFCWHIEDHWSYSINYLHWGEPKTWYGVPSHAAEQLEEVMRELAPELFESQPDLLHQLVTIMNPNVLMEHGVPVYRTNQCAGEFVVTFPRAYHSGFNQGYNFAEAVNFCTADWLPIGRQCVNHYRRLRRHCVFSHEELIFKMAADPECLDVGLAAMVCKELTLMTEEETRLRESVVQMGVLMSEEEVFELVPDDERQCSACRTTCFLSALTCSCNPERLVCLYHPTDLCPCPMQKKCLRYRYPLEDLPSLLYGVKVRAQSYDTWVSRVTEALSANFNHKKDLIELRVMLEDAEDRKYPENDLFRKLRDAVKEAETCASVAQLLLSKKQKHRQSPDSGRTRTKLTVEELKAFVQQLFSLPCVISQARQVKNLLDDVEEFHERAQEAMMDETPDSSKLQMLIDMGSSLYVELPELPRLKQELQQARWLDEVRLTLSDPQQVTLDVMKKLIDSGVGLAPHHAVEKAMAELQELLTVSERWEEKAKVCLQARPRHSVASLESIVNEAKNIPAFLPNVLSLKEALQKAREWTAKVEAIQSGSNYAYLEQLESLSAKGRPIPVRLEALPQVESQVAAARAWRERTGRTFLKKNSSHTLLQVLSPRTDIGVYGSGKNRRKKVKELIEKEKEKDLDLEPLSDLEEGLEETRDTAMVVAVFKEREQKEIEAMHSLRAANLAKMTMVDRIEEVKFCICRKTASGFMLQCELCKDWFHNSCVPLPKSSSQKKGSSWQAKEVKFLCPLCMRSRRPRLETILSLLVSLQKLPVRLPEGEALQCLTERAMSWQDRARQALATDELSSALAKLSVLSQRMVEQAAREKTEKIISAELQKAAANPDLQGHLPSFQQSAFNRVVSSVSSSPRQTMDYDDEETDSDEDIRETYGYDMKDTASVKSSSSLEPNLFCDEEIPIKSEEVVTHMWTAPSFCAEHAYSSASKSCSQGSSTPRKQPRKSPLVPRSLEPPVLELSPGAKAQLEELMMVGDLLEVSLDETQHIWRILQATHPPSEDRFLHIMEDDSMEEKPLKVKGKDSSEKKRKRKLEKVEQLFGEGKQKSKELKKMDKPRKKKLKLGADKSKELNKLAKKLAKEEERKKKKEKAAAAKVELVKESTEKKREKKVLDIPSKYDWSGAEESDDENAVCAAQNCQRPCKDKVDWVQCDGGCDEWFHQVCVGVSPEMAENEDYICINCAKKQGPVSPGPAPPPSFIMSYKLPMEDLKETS

[7] = target: T5, Lysine-specific demethylase 4D (Homo sapiens) (UniProt Q6B0I6); assay: Binding affinity to KDM4D (unknown origin) by differential scanning fluorimetry
T5 sequence (whole entry): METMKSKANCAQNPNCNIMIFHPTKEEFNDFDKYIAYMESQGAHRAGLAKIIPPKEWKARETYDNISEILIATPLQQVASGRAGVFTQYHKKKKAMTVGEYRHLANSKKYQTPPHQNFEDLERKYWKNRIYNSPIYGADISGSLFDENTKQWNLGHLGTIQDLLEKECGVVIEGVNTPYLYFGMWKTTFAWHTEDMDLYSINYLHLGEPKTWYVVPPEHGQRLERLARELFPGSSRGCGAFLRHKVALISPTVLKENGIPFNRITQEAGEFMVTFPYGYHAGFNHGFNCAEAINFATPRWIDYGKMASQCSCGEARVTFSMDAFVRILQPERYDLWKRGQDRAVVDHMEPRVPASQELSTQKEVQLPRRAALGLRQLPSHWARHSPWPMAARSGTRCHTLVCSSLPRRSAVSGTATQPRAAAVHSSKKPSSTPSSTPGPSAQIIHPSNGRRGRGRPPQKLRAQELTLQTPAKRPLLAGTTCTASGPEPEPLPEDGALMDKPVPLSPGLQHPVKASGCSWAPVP

[8] = target: T1, Bifunctional arginine demethylase and lysyl-hydroxylase JMJD6; assay: Binding affinity to JMJD6 in human HeLa cells assessed as inhibition of temperature-dependent protein degradation by CETSA; type: cell-based
[9] = target: T4, Lysine-specific demethylase 5A; assay: Binding affinity to KDM5A (unknown origin) by differential scanning fluorimetry
RNA demethylase ALKBH5 [10] = target: T6, RNA demethylase ALKBH5 (Homo sapiens, UniProt Q6P6C2); assay: Binding affinity to ALKBH5 (unknown origin) by differential scanning fluorimetry
Target sequence in this assay (Q6P6C2 2-394 limits assumed): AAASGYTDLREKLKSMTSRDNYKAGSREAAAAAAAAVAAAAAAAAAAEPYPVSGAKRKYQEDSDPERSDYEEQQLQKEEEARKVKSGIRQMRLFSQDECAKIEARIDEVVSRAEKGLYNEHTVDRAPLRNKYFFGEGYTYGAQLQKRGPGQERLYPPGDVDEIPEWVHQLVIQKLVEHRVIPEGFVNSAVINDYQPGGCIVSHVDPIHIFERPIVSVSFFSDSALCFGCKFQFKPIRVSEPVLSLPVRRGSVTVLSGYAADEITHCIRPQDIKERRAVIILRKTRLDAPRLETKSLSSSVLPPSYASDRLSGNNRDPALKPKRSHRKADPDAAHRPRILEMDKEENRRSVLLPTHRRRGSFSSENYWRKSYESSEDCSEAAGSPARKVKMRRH

RNA demethylase ALKBH5 [11] = target: T6, RNA demethylase ALKBH5; assay: Inhibition of ALKBH5 (unknown origin) by Succinate-Glo assay
Target sequence in this assay (Q6P6C2 whole entry): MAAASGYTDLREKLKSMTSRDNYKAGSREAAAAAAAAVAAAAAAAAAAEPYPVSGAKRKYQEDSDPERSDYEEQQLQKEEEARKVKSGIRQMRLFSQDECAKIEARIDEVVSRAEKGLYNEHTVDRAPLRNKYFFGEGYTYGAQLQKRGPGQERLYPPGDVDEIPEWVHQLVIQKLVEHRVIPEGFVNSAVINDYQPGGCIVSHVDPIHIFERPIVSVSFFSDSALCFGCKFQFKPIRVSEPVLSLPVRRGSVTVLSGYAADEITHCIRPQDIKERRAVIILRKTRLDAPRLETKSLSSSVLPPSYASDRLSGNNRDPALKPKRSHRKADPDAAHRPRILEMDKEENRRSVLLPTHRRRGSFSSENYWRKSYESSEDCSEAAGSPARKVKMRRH

[12] = target: T7, Lysine-specific demethylase 4D (Homo sapiens, UniProt Q6B0I6); assay: Inhibition of KDM4D (unknown origin) by Succinate-Glo assay
T7 sequence (Q6B0I6 whole entry): T5 sequence (whole entry)

[13] = target: T2, Lysine-specific demethylase 3B; assay: Inhibition of KDM3B (unknown origin) by Succinate-Glo assay
[14] = target: T1, Bifunctional arginine demethylase and lysyl-hydroxylase JMJD6; assay: Inhibition of JMJD6 (unknown origin)
[15] = target: T1, Bifunctional arginine demethylase and lysyl-hydroxylase JMJD6; assay: Inhibition of JMJD6 (unknown origin) at 100 uM by Succinate-Glo assay

T2 sequence (Q7LBC6 whole entry): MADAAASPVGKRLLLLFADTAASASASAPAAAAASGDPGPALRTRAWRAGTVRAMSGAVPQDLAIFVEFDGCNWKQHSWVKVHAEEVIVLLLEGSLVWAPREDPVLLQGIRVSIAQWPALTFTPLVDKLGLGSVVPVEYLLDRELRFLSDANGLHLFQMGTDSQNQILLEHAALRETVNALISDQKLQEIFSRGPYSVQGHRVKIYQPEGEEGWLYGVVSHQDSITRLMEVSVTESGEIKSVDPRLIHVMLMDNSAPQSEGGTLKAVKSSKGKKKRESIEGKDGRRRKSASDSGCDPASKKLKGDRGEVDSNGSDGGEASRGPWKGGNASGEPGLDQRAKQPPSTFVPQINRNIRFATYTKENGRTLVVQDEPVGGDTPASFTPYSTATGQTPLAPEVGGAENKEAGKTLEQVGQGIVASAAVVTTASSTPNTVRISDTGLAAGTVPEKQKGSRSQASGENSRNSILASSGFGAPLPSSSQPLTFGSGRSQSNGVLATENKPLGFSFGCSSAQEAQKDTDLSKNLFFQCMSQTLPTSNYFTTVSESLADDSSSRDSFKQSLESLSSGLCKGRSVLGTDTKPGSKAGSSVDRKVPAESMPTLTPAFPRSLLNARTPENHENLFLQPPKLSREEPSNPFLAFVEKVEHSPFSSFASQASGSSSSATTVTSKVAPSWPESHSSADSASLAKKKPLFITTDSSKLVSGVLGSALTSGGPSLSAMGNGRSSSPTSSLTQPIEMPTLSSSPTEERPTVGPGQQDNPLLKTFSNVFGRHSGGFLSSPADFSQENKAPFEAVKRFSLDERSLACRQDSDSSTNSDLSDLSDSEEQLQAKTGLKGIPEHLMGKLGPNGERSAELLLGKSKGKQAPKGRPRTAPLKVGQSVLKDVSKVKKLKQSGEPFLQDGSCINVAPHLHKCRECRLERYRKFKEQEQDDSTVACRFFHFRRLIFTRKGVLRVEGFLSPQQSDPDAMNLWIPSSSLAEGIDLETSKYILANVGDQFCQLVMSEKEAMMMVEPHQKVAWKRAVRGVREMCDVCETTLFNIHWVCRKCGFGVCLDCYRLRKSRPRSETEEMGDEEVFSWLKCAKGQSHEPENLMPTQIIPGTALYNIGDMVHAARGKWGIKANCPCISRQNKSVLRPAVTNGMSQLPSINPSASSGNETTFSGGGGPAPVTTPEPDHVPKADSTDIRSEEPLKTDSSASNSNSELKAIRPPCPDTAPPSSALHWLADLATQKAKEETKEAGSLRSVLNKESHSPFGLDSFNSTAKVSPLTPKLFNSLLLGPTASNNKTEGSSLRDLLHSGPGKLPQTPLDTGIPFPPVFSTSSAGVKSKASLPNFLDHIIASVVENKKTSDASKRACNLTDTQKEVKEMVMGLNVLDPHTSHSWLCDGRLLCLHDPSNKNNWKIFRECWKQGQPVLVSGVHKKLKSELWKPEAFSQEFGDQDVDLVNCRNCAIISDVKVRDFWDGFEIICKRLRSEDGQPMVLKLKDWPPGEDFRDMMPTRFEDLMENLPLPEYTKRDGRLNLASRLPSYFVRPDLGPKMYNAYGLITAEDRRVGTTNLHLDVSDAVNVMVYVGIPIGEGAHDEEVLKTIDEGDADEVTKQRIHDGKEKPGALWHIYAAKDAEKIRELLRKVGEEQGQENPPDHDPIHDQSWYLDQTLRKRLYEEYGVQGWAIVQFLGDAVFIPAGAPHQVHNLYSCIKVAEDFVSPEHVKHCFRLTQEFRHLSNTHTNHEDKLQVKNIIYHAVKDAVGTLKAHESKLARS

Row | Compound | IC50 [1] [µM] | further results
1 | CCOC(=O)c1ccnc(-c2ccnn2C)c1 | > 100 | –
2 | CCOC(=O)c1cccnc1-c1ccn(C)n1 | > 100 | –
3 | CCOC(=O)c1ccnc(-c2nn(C)cc2-c2ccccc2)c1 | 15.2 | –
4 | CCOC(=O)c1ccnc(-c2nn(C)cc2-c2cccc(N3CCOCC3)c2)c1 | 20.4 | –
5 | CCOC(=O)c1ccnc(-c2nn(C)cc2-c2cc3ccccc3c3ccccc23)c1 | > 100 | –
6 | CCOC(=O)c1cc(-c2ccn(C)n2)ncc1F | 23.1 | –
7 | CCOC(=O)c1ccnc(-c2nn(C)cc2-c2cccc(C)c2)c1 | 22.9 | –
8 | Cc1cc(O)nc(NN=Cc2ccccc2O)n1 | – | IC50 [14]: 0.78 µM
9 | CCOC(=O)c1ccnc(-c2nn(C)cc2-c2cc(OC)cc(OC)c2)c1 | > 100 | –
10 | CCOC(=O)c1ccnc(-c2nn(C)cc2-c2ccc(OC)nc2)c1 | 24.9 | –
11 | CCOC(=O)c1cc(C)nc(-c2ccn(C)n2)c1 | > 100 | –
12 | CCOC(=O)c1ccnc(-c2nn(C)cc2-c2ccc3occc3c2)c1 | > 100 | –
13 | CCOC(=O)c1cccc(-c2ccn(C)n2)c1 | > 100 | –
14 | CCOC(=O)c1ccnc(-c2cc[nH]n2)c1 | 19.9 | inhibition [15]: 76%; inhibition [1]: Dose-Dependent Effect
15 | CCOC(=O)c1cc(-c2ccn(C)n2)ncc1C(F)(F)F | > 100 | –
16 | Cn1ccc(-c2cc(-c3cnn[nH]3)ccn2)n1 | 12.9 | –

Now from value to compound, other results behind:

Row | IC50 [1] [µM] | Compound | further results
17 | 1.12 | Cn1ccc(-c2cc(C(=O)OCC(F)F)ccn2)n1 | –
18 | 3.8 | Cn1ccc(-c2cc(C(=O)OCC3CC3)ccn2)n1 | –
19 | > 100 | CCOC(=O)c1ccnc(-c2ccn(C(C)C)n2)c1 | –
20 | 2.53 | Cn1ccc(-c2cc(C(=O)OCC3CCC3)ccn2)n1 | –
21 | > 100 | Cn1ccc(-c2cc(C(N)=O)ccn2)n1 | –
22 | 0.681 | Cn1ccc(-c2cc(C(=O)OCC(F)(F)F)ccn2)n1 | Activity [2]: inactive; IC50 [3]: > 100 µM; Activity [4]: inactive; ΔTm [5]: 1.94 °C; IC50 [6]: > 100 µM; Activity [7]: inactive; Activity [8]: Active; Activity [9]: inactive; Activity (RNA demethylase ALKBH5 [10]): inactive; IC50 (RNA demethylase ALKBH5 [11]): > 100 µM; IC50 [12]: > 100 µM; IC50 [13]: > 100 µM
23 | > 100 | CCNC(=O)c1ccnc(-c2ccn(C)n2)c1 | –
24 | 1.45 | Cn1ccc(-c2cc(C(=O)OCCF)ccn2)n1 | –
25 | 11.8 | CC(C)COC(=O)c1ccnc(-c2ccn(C)n2)c1 | –
26 | 1.71 | Cn1ccc(-c2cc(C(=O)O)ccn2)n1 | –
27 | 1.94 | CC(C)OC(=O)c1ccnc(-c2ccn(C)n2)c1 | –
28 | 43.5 | Cn1ccc(-c2cc(C(=O)OC3CCCC3)ccn2)n1 | –
29 | 5.69 | Cn1ccc(-c2cc(C(=O)OCc3ccccc3)ccn2)n1 | –
30 | > 100 | CCOC(=O)c1ccc(-c2ccn(C)n2)nc1 | –
31 | 1.86 | COC(=O)c1ccnc(-c2ccn(C)n2)c1 | –
32 | 1.34 | CCCOC(=O)c1ccnc(-c2ccn(C)n2)c1 | –
33 | 2.43 | CCOC(=O)c1ccnc(-c2ccn(CC)n2)c1 | –
34 | 0.914 | CCOC(=O)c1ccnc(-c2ccn(C)n2)c1 | –

Reference: ChEMBL document CHEMBL4834445, “Discovery of a new class of JMJD6 inhibitors and structure-activity relationship study” (Bioorg Med Chem Lett, 2021)
